# According to US4254124A, “Antidepressant agent” (priority 1979, dated 1981):
# Key:
# mouse [1] = assay: Inhibition of pernicious preening in mice (anti-psychotic or analgetic); assay type: in vivo; details: oral
# Description: mice (anti-psychotic or analgetic)^3
# mouse [2] = assay: Reduction of phenylquinone writhing in mice (analgetic); assay type: in vivo; details: oral
# Description: Reduction of phenylquinone writhing
# ^2 Hendershot, et al., J. Pharmacol. & Exptl. Ther. 125, 237 (1959).
# [3] = animal tests, antidepressant activity (general statement); assay type: in vivo
# mouse [4] = assay: spontaneous motor activity; assay type: in vivo
# Description: More particularly, in the measurement of spontaneous motor activity in the mouse using the device and method described by Kissel in U.S. Pat. No. 3,100,473 patented Aug.
# dog = assay: carotid arterial blood pressure in pentobarbital anesthetized dog; assay type: in vivo; details: 1 and 10 mg./kg. intravenously
# [5] = animal tests, propensity for adverse reactions (general statement); assay type: in vivo; details: central nervous system depression, hypotensive action, and others; vs trazodone
# Experimental: More particularly, in the measurement of spontaneous motor activity in the mouse using the device and method described by Kissel in U.S. Pat. No. 3,100,473 patented Aug. […] In contrast, trazodone at a dose of 15.3 mg./kg. caused a 30% reduction in spontaneous motor activity. […] Other animal test results in which MJ 12762 has been compared to trazodone are arranged in the following table.
# mouse [6] = assay: Mouse, tail clip (analgetic); assay type: in vivo; details: oral
# Description: Mouse, tail clip (analgetic)^1
# ^1 Bianchi, et al., Brit. J. of Pharmacology 9, 280 (1954).
# mouse [7] = assay: reserpine-induced ptosis prevention (oral pretreatment); assay type: in vivo; details: for ED50: Mus musculus, po, p.o. before reserpine 2.0 mg./kg. i.v., prevention in 50% of the animals
# mouse [8] = assay: ALD50/ATD50 Mouse (lethal toxicity and first signs of pharmacologic activity)
# Description: (§1) ^4 Groups of 10 mice treated variously with geometrically increasing
# (§2) doses of test compound with observations of lethal toxicity (ALD50)
# (§3) and for first signs of pharmacologic activity (ATD50).
# [9] = as above; details: mouse, in vivo, po
# Description: as §1, §2, §3
# in vivo = details: mouse, po
# Description: as §1, §2, §3
# alpha-adrenergic = assay: blood pressure response to 1-epinephrine (alpha-adrenergic blocking action), anesthetized dog; assay type: in vivo
# [10] = U.S. Pat. No. 3,381,009; cited from earlier work
# patients = details: cited from earlier work
# [11] = vs imipramine, Fabre et al. 1979
compound,measurement,setting,value
"O=c1n(CCCN2CCN(c3cccc(C(F)(F)F)c3)CC2)nc2ccccn12 [MJ 12762, 2-[3-[4-[3-(Trifluoromethyl)phenyl]-1-piperazinyl]propyl]-1,2,4-triazolo[4,3-a]pyridin-3(2H)-one]","inhibition of pernicious preening, activity in words",mouse [1],Inactive
same,"inhibition of pernicious preening, animals responding",mouse [1]; at 31 mg./kg.,2 of 10
same,ED50,mouse [2],6.1 mg/kg
same,antidepressant activity relative to trazodone,[3],comparable in antidepressant activity to trazodone
same,effect on spontaneous motor activity,"mouse [4]; 20, 40 and 80 mg. per kg. orally",neither stimulation nor depression
same,effect on blood pressure,dog,without effect on blood pressure
same,propensity for adverse reactions,[5],significantly reduced propensity for adverse reactions
same,ED50,mouse [6],94 mg/kg
same,ED50,mouse [7],14 mg/kg
same,"potency relative to trazodone, reserpine ptosis","mouse [7]; p.o., vs trazodone",two to three times more potent than trazodone
same,acute toxicity relative to trazodone,mouse [8]; mouse,somewhat greater than that of trazodone
same,propensity for signs of overt pharmacologic activity unrelated to utility,mouse [8]; vs trazodone,reduced as compared to trazodone
same,TD50,[9],8 to 15.7 mg/kg
same,LD50,in vivo,250 to 500 mg/kg
same,effect on the blood pressure response to 1-epinephrine (alpha-adrenergic blocking action),alpha-adrenergic; intravenous doses of 1 and 10 mg./kg.,lack of alpha-adrenergic blocking action
"O=c1n(CCCN2CCN(c3cccc(Cl)c3)CC2)nc2ccccn12 [trazodone, 2-[3-[4-(3-chlorophenyl)-1-piperazinyl]propyl]-1,2,4-triazolo[4,3-a]pyridin-3(2H)-one, reference compound]",ED50,mouse [1]; Mus musculus,43 mg/kg
same,reduction in spontaneous motor activity,mouse [4]; 15.3 mg./kg.,30%
same,effect on blood pressure,dog,depressor response
same,ED50,mouse [7],36 mg/kg
same,pharmacological action in various animal tests,[10],"tranquilizing action, hypotensive action, and analgesic action"
same,TD50,[9],2 to 4 mg/kg
same,effect on the blood pressure response to 1-epinephrine bitartrate (alpha-adrenergic blocking action),alpha-adrenergic; 10 mg./kg. intravenously,blocked the effect of 1-epinephrine bitartrate
same,adverse reactions sometimes observed in patients,patients; endogenous or neurotic depression,"hypotension,fatigue, drowsiness, and nasal or sinus congestion"
same,antidepressant effectiveness in clinical use,patients; [11],equivalent in effectiveness to imipramine
same,side effects in clinical use,patients; [11],fewer side effects
